Tests used:
[1] = biological target: T1, L-malic acid carrier in S. pombe (Schizosaccharomyces pombe, UniProt P50537); settings: Sousa et al. (1992); cited from earlier work
T1 construct: host or cells: S. pombe cells (per the assay title)
T1 sequence (P50537 1-438): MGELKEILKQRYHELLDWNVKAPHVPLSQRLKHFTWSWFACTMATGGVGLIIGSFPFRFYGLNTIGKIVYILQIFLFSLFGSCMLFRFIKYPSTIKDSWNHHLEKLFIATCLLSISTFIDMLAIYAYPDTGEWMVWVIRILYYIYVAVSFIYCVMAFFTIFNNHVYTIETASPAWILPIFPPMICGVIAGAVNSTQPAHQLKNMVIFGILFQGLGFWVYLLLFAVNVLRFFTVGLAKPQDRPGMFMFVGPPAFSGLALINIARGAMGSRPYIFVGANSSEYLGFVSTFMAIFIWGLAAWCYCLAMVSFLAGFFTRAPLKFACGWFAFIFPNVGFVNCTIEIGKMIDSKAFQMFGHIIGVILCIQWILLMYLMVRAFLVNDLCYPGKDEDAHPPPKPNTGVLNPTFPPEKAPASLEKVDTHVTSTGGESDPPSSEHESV

S. pombe Mae1 permease = biological target: T2, S. pombe Mae1 permease (Schizosaccharomyces pombe, UniProt P50537); assay: Transport assays for 14C-labelled L-malic, succinic, malonic and α-ketoglutaric acids in S. pombe wild-type, mae1- mutant and complemented mutant; type: cell-based; settings: 14C-labelled acid, 0.1 M KCl pH 3.5, 30° C.
T2 construct: endogenous in cells; host or cells: S. pombe 972 leu1-32 h- (wild type); also the mae1- mutant complemented with the 3.4 kb SmaI genomic mae1 fragment in pRS315
T2 sequence (P50537 1-438): T1 sequence (P50537 1-438)
Procedure: Yeast cells in the logarithmic growth phase (OD of 1.2 at A595) were harvested and washed three times with 0.1 M KCI (pH 3.5). The cells were resuspended in 4 ml 0.1 M KCI (pH 3.5) and stored at 4° C. Transport assays were completed within 3 h. The cell suspensions were pre-incubated for 5 min in a shaker water bath at 30° C. at 100 rpm. Assays were initiated by adding 25 μl of ^14C-labelled L malate (45 μCi/μmol) (Amersham), 100 μl of succinic acid (42 μCi/μmol) (ICN), 100 μl malonic add (56.7 μCi/μmol) (Du Pont) or 100 μl a-ketoglutarate (51.8 μCi/μmol) (Du Pont). A 0.5-ml sample was withdrawn at 10, 20, 40, 60, and 120 sec intervals, rapidly filtered through 0.45 μm membranes (Mllipore Corporation, Bedford, Mass.), and immediately washed three times with 5 ml amounts of ice-cold 0.1 M KCI (pH 3.5). Filters containing the cells were oven-dried at 50° C. and placed in scintillation vials containing 5 ml of scintillation reaction mixture (Boehringer Mannheim, Mannheim, Germany). Pre-boiled (5 min) cells were used to determine non-specific binding of [^14C] malate, succinate, malonate and α-ketoglutarate to the yeast cells.

Structure (SMILES)	inhibition of initial uptake rates of L-malic acid [1]	transport in the mae1-mutant complemented with the 3.4kb Sma1 fragment containing the mae1 gene (S. pombe Mae1 permease)
O=C(O)/C=C/C(=O)O [fumaric acid]	competitive inhibition	–
O=C(O)C[C@@H](O)C(=O)O [D-malic acid]	competitive inhibition	–
O=C(O)/C=C\C(=O)O [maleic acid]	competitive inhibition	–
O=C(O)CC(=O)O [malonic acid]	competitive inhibition	fully restored
O=C(O)CCC(=O)O [succinic acid]	competitive inhibition	fully restored
O=C(O)C[C@H](O)C(=O)O [L-malic acid]	–	fully restored
O=C(O)CC(=O)C(=O)O [oxaloacetic acid]	competitive inhibition	–
